From patent US6949566B2, “Thiazole and oxazole derivatives” (Shionogi & Co. Ltd., priority 2000, dated 2005)

Columns and labels:
Assay type in all cases: biochemical
MMP-13 = biological target: T1, MMP-13 (Homo sapiens, UniProt P45452); assay: Assay for inhibitory activities on MMPs (fluorogenic peptide substrate), MMP-13; conditions: catalytic domain 104Tyr-267Gly; substrate MOCAc-Pro-Leu-Gly-Leu-A2Pr(DNP)-Ala-Arg-NH2
T1 construct: catalytic domain (^104Tyr˜^267Gly) was amplified with RT-PCR; His-tag; enterokinase digestion-site; made in house; host or cells: Escherichia coli
Method: (§1) In regard to MMP-13, mRNA was prepared from carcinoma cell SW1353 derived from human cartilage stimulate by IL-1, TNF and catalytic domain (^104Tyr˜^267Gly) was amplified with RT-PCR. This was cloned in Escherichia. coli expression vector pTrc99AHE inserted with His-tag sequence and enterokinase digestion-site, induced and expressed by IPTG (Isopropyl-β-D-thiogalactopyranoside) and expressed in a insoluble fraction. Isolation of MMP-13 from an insoluble fraction was carried out by dissolving in modifier (6M urea) by a usual method and purification with metal chelate chromatography (Ni Chelateing Sepharose). And then removing modifier (6M urea) with dialyze and refolding of the enzyme spontaneously gave activated MMP-13.
(§2) The enzymatic activity on MMPs was analyzed by the method described in “C. Graham Knight, Frances Willenbrock and Gillian Murphy: A novel coumarin-labelled peptide for sensitive continuous assays of the matrix metalloproteinases: FEBS LETT., 296, (1992), 263-266”. The substrate MOCAc-Pro-Leu-Gly-Leu-A2Pr(DNP)-Ala-Arg-NH2 was purchased from Peptide Institute, Inc., Osaka, Japan. The measurement of the inhibitory activities (IC50) was carried out by the following four methods;
(§3) (A) Reaction with substrate, enzyme (MMPs) and inhibitor
(§4) (B) Reaction with substrate and inhibitor, without enzyme
(§5) (C) Reaction with substrate and enzyme (MMPs), without inhibitor
(§6) (D) Reaction with substrate only
(§7) IC50 values were calculated by using the following formula and each fluorescence values of above four methods (A to D). % inhibition={1−(A−B)/(C−D)}×100 IC50 means the concentration required to inhibit 50% of the enzyme activity.

MMP-9 = biological target: T2, MMP-9 (Homo sapiens, UniProt P14780); assay: Assay for inhibitory activities on MMPs (fluorogenic peptide substrate), MMP-9; conditions: MMP-9 from HT1080 cells, activated by TPCK-Trypsin; substrate MOCAc-Pro-Leu-Gly-Leu-A2Pr(DNP)-Ala-Arg-NH2
T2 construct: endogenous in cells; host or cells: HT1080 human fibrosarcoma cells, TPA-stimulated; enzyme purified from conditioned medium
T2 sequence (P14780 107-707 limits assumed): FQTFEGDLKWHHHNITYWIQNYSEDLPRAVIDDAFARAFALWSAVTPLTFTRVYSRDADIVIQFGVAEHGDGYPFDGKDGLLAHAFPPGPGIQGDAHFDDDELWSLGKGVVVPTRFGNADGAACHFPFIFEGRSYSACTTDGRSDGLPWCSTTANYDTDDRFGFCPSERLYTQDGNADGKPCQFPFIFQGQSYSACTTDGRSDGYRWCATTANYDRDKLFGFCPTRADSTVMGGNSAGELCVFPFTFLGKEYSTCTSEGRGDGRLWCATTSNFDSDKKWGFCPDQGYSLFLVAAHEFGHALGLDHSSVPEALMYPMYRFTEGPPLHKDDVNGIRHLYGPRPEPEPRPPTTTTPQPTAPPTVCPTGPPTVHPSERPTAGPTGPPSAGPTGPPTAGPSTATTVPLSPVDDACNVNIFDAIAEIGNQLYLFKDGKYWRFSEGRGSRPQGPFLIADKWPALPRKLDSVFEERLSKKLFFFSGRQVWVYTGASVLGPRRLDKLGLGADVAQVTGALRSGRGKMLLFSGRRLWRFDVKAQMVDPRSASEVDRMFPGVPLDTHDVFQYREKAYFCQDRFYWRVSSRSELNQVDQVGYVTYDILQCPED
Excerpt: MMP-9 was isolated and purified by procedures described in as follows: Yasunori Okada, Yukio Gonoji, Katsumi Naka, Katsuro Tomita, Isao Nakanishi, Kazushi Iwata, Kyoko Yamashita, and Taro Hayakawa: Matrix metalloproteinase 9 (92-kDa gelatinase/type IV collagenase) from HT1080 human fibrosarcoma cells. Purification and activation of the precursor and enzymic properties J. Biol. Chem., 1992, 267 21712-21719, in combination with others: 1)Yasunori Okada, Tatsuhisa Morodomi, Jan J, Enghild, ko Suzuki, Atsushi Yasui, Isao Nakanishi, Guy Salvesen and Hideaki Nagase: Matrix metalloproteinase 2 from human rheumatoid synovial fibroblasts. Purification and activation of the precursor and enzymic properties. Eur. J. Biochem. 1990, 194 721-730; 2)Robin V Ward, Rosalind M Hembry, John J Reynolds and Gillian Murphy: The purification of tissue inhibitor of metalloproteinase-2 from its 72 kDa progelatinase complex. Biochem. J. 1991 278 179-187. In detail, human fibrosarcoma ATCC HT1080 cell line was cultured to confluent in Dulbecco's Modified Medium (DMEM) containing 10% fetal-calf serum at 37° C. for 48 hours. Subsequently, the medium of confluent culture was changed to serum-free DMEM medium. To obtain MMP-9, Phorbol-12-myristate-13-acetate (TPA) must be added to this serum-free DMEM medium at a concentration of 50 ng/ml. The TPA treated medium was centrifuged at 3000 rpm for 15 min and the supernatant was concentrated to 450 ml by a Toyo-Roshi UP-20 apparatus with an ultrafiltration membrane. Then, proMMP-9 in this concentrated solution was purified by using columns of Gelatin-Sepharose and Concanavalin A-Sepharose. The pool containing proMMP-9 was dialyzed, concentrated (Toyo-Roshi UP-20) and applied to columns of Sephacryl S-200 and Green A matrix for the separation from TIMPs. The obtained proMMP-9 fraction was activated by TPCK-Trypsin (Final conc. 3 μg/501 μl React Mix.).
as §2, §3, §4, §5, §6, §7

MMP-12 = biological target: T3, MMP-12 (Homo sapiens, UniProt P39900); assay: Assay for inhibitory activities on MMPs (fluorogenic peptide substrate), MMP-12; conditions: catalytic domain 100Phe-263Gly; substrate MOCAc-Pro-Leu-Gly-Leu-A2Pr(DNP)-Ala-Arg-NH2
T3 construct: catalytic domain(^100Phe˜^263Gly) was amplified with RT-PCR; His-tag; enterokinase digestion-site; made in house; host or cells: Escherichia coli
T3 sequence (P39900 100-263): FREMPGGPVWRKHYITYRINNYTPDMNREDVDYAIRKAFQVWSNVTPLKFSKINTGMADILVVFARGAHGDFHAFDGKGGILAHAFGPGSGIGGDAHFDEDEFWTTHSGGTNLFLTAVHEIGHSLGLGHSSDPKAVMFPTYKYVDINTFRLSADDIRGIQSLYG
Method: as §1, with “MMP-12,” for “MMP-13, mRNA was prepared from carcinoma cell SW1353 derived from human cartilage stimulate by IL-1, TNF and”, “domain(^100Phe˜^263Gly)” for “domain (^104Tyr˜^267Gly)”, “RT-PCR from Human Placenta Total RNA.” for “RT-PCR.”, “MMP-12” for “MMP-13”, “dialysis” for “dialyze”, “MMP-12.” for “MMP-13.”
as §2, §3, §4, §5, §6, §7

MMP-8 = biological target: T4, MMP-8 (Homo sapiens, UniProt P22894); assay: Assay for inhibitory activities on MMPs (fluorogenic peptide substrate), MMP-8; conditions: catalytic domain 99Phe-262Gly; substrate MOCAc-Pro-Leu-Gly-Leu-A2Pr(DNP)-Ala-Arg-NH2
T4 construct: catalytic domain (^99Phe˜^262Gly) was amplified with PCR; His-tag; enterokinase digestion-site; made in house; host or cells: Escherichia coli
T4 sequence (P22894 99-262): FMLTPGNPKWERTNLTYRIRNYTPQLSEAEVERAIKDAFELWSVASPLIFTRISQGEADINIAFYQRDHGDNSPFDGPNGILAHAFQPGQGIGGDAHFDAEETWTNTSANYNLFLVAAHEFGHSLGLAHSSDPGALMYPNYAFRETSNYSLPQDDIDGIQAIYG
Excerpt: In regard to MMP-8, catalytic domain (^99Phe˜^262Gly) was amplified with PCR using commercial available Human Bone Marrow cDNA. This was cloned in Escherichia. coli expression vector pTrc99AHE inserted with His-tag sequence and enterokinase digestion-site, induced and expressed by IPTG (Isopropyl-β-D-thiogalactopyranoside) and expressed in a insoluble fraction (Thau F. Ho, M. Walid Qoronfleh, Robert C. Wahl, Trica A. Pulvino, Karen J. Vavra, Joe Falvo, Tracey M. Banks, Patricia G. Brake and Richard B. Ciccarelli: Gene expression, purification and characterization of recombinant human neutrophil collagenase. Gene 146, (1994) 297-301, Prepared by the a improved method of this material). Isolation of MMP-8 from an insoluble fraction was carried out by dissolving in modifier (6M urea) by a usual method and purification with metal chelate chromatography. And then removing modifier (6M urea) with dialysis and refolding of the enzyme spontaneously gave activated MMP-8.
as §2, §3, §4, §5, §6, §7

MMP-2 = biological target: T5, MMP-2 (Homo sapiens, UniProt P08253); assay: Assay for inhibitory activities on MMPs (fluorogenic peptide substrate), MMP-2; conditions: purchased MMP-2; substrate MOCAc-Pro-Leu-Gly-Leu-A2Pr(DNP)-Ala-Arg-NH2
T5 construct: purchased Calbiochem-Novabiochem International, Inc
T5 sequence (P08253 110-660): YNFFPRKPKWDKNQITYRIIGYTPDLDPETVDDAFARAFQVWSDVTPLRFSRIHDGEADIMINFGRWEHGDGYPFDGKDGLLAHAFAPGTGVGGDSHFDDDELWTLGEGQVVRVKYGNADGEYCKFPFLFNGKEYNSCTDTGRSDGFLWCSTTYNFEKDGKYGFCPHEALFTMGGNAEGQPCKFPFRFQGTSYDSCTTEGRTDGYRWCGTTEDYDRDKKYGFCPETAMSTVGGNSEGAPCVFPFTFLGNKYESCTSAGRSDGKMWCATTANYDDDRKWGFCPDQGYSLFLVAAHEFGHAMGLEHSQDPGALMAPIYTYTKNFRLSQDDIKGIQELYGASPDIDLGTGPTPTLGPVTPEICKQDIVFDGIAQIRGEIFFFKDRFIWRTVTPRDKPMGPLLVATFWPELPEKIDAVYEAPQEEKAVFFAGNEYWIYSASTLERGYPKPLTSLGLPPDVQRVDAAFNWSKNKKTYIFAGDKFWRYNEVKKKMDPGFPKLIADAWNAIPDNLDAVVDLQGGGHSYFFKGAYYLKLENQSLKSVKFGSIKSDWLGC
Method: MMP-2 was purchased from Calbiochem-Novabiochem International, Inc.
as §2, §3, §4, §5, §6, §7

Row | IC50 (MMP-13) | IC50 (MMP-9) | IC50 (MMP-12) | IC50 (MMP-8) | IC50 (MMP-2) | SMILES
1 | 5.51 nM | 5.71 nM | 3.06 nM | 56.9 nM | 1.27 nM | CC(C)[C@@H](NS(=O)(=O)c1ccc(-c2ncc(-c3ccc(Cl)cc3)s2)cc1)C(=O)O [Compound B-4]
2 | 6.18 nM | 14.8 nM | 1.33 nM | 25.7 nM | 5.24 nM | CC(C)[C@H](NS(=O)(=O)c1ccc(-c2ncc(-c3ccc(Cl)cc3)s2)cc1)C(=O)O [Compound B-5]
3 | 1.16 nM | 10 nM | 0.37 nM | 6.47 nM | 0.347 nM | COc1ccc(-c2cnc(-c3ccc(S(=O)(=O)N[C@@H](C(=O)O)C(C)C)cc3)s2)cc1 [Compound B-6]
4 | 9.53 nM | 11.1 nM | 1.96 nM | 10.5 nM | 1.38 nM | CC(C)[C@@H](NS(=O)(=O)c1ccc(-c2ncc(-c3ccc(F)cc3)s2)cc1)C(=O)O [Compound B-8]
5 | 13.1 nM | 55 nM | 1.33 nM | 12.5 nM | 8.05 nM | CC(C)[C@H](NS(=O)(=O)c1ccc(-c2ncc(-c3ccc(F)cc3)s2)cc1)C(=O)O [Compound B-9]
6 | 3.38 nM | 3.96 nM | 0.643 nM | 31.7 nM | 0.373 nM | CC(C)[C@@H](NS(=O)(=O)c1ccc(-c2ncc(-c3ccc(Br)cc3)s2)cc1)C(=O)O [Compound B-10]
7 | 6.34 nM | 16.2 nM | 2.4 nM | 26.1 nM | 1.08 nM | O=C(O)[C@@H](Cc1ccccc1)NS(=O)(=O)c1ccc(-c2ncc(-c3ccccc3)s2)cc1 [Compound B-11]
8 | 9.3 nM | 66.9 nM | 3.69 nM | 25.9 nM | 1.44 nM | O=C(O)[C@H](Cc1ccccc1)NS(=O)(=O)c1ccc(-c2ncc(-c3ccccc3)s2)cc1 [Compound B-12]
9 | 5.08 nM | 11.8 nM | 1.41 nM | 92.3 nM | 1.2 nM | O=C(O)[C@@H](Cc1ccccc1)NS(=O)(=O)c1ccc(-c2ncc(-c3ccc(Cl)cc3)s2)cc1 [Compound B-13]
10 | 11 nM | 19.5 nM | 2.49 nM | 72.8 nM | 2.56 nM | O=C(O)[C@H](Cc1ccccc1)NS(=O)(=O)c1ccc(-c2ncc(-c3ccc(Cl)cc3)s2)cc1 [Compound B-14]
11 | 12.1 nM | 22.6 nM | 3.21 nM | 22.4 nM | 2.09 nM | O=C(O)[C@@H](Cc1ccccc1)NS(=O)(=O)c1ccc(-c2ncc(-c3ccc(F)cc3)s2)cc1 [Compound B-17]
12 | 22 nM | 19.9 nM | 5.86 nM | 58.2 nM | 1.47 nM | C[C@@H](NS(=O)(=O)c1ccc(-c2ncc(-c3ccccc3)s2)cc1)C(=O)O [Compound B-21]
13 | 2.04 nM | 16.2 nM | 1.37 nM | 15.4 nM | 0.479 nM | COc1ccc(-c2cnc(-c3ccc(S(=O)(=O)N[C@H](C)C(=O)O)cc3)s2)cc1 [Compound B-23]
14 | 8.4 nM | 109 nM | 1.5 nM | 18.5 nM | 6.3 nM | COc1ccc(-c2cnc(-c3ccc(S(=O)(=O)N[C@@H](C)C(=O)O)cc3)s2)cc1 [Compound B-24]
15 | 4.82 nM | 5.69 nM | 0.949 nM | 51.7 nM | 0.484 nM | C[C@@H](NS(=O)(=O)c1ccc(-c2ncc(-c3ccc(Cl)cc3)s2)cc1)C(=O)O [Compound B-25]
16 | 14.1 nM | 54.4 nM | 1.24 nM | 42.5 nM | 8.3 nM | C[C@H](NS(=O)(=O)c1ccc(-c2ncc(-c3ccc(Cl)cc3)s2)cc1)C(=O)O [Compound B-26]
17 | 15.3 nM | 13.3 nM | 3.29 nM | 25.2 nM | 0.901 nM | C[C@@H](NS(=O)(=O)c1ccc(-c2ncc(-c3ccc(F)cc3)s2)cc1)C(=O)O [Compound B-27]
18 | 2.6 nM | 5.82 nM | 0.47 nM | 45.2 nM | 0.313 nM | C[C@@H](NS(=O)(=O)c1ccc(-c2ncc(-c3ccc(Br)cc3)s2)cc1)C(=O)O [Compound B-29]
19 | 32.6 nM | 35.7 nM | 4.55 nM | 144 nM | 3.57 nM | CC(C)C[C@@H](NS(=O)(=O)c1ccc(-c2ncc(-c3ccc(Cl)cc3)s2)cc1)C(=O)O [Compound B-31]
